Patent publication US20140034581A1, “LIQUID PRODUCTS AND METHOD FOR EMULSIFYING OIL, AND USE THEREOF IN THE TREATMENT OF OIL CONTAMINATIONS” (MAN OIL GROUP AG, priority 2011, published 2014)

Experiment: flash point
Type: physicochemical
Settings: pure glycol component

SMILES: CC(O)CO (stereo not shown) [1,2-Propandiol]
- flash point: > 102 °C
